# Test results from US11166916B2, “Carbon quantum dots and preparation process and use thereof” (CHANG GUNG UNIVERSITY, priority 2019, dated 2021).
# Assays:
# Experiment in all cases: Antimicrobial test, MIC90 by spread plate count
# Escherichia coli = type: cell-based; conditions: BCRC10316, Escherichia coli BCRC 10316
# Procedure: (§1) A respective one of Staphylococcus aureus, Escherichia coli, Pseudomonas aeruginosa, Salmonella enteritidis, and MRSA was inoculated into a LB broth, followed by incubation in a thermostatic shaking incubator (37° C.) until an OD600 value of 1.0 was reached. The respective resultant culture was centrifuged at 3,000 g for 10 minutes, and the cell pellet thus obtained was washed with a 5 mM phosphate buffer (pH 7.4), followed by suspending with a LB broth. The resultant bacterial broths of Staphylococcus aureus, Escherichia coli, Pseudomonas aeruginosa, Salmonella enteritidis, and MRSA (each of such five bacterial suspensions contained a bacterial concentration of 1×10^4 CFU/mL) were used for the following experiment.
# (§2) A suitable amount of a respective one of CQD^DA, CQD^SPD, CQD^DA-SPM, CQD^DA-SPD, CQD^DA-PUT, CQD^DA-SPM-1, and CQD^DA-SPM-2 was freeze-dried, and the respective resultant freeze-dried powder was dissolved in deionized water, followed by dilution with a 5 mM phosphate buffer (pH 7.4), so as to obtain seven CQD solutions having different concentrations (0.05-50 μg/mL).
# (§3) A respective one of the five CQD solutions (i.e., CQD^DA, CQD^SPD, CQD^DA-SPM, CQD^DA-SPD, and CQD^DA-PUT solutions), the DA solutions, and the SPM solutions and a respective one of the bacterial broths of Staphylococcus aureus and Escherichia coli were mixed in a 5 mM phosphate buffer (pH 7.4), and the respective resultant mixture was incubated in a thermostatic shaking incubator (37° C.) for 1 hour, followed by addition of a suitable amount of LB broth. After incubation with shaking for 18 hours, the respective resultant culture was subjected to serial dilution with a LB broth, so as to obtain seven dilutions (10^1 to 10^7).
# (§4) Thereafter, 1 μL of the respective dilution was subjected to spread plate procedure. The number of surviving bacteria was counted, and the minimum inhibitory concentration to inhibit the growth of 90% of a bacterial isolate (MIC90) was determined according to the technique well known to and routinely used by one skilled in the art.
# (§5) A respective one of the four CQD solutions (i.e., CQD^DA, CQD^DA-SPM, CQD^DA-SPM-1, and CQD^DA-SPM-2 solutions) and the SPM solutions and a respective one of bacterial broths of Staphylococcus aureus, Escherichia coli, Pseudomonas aeruginosa, Salmonella enteritidis, and MRSA were mixed in a 5 mM phosphate buffer (pH 7.4), and the respective resultant mixture was subjected to antimicrobial activity analysis according to the method described in section E of this example.
# Staphylococcus aureus = type: cell-based; conditions: ATCC9144, Staphylococcus aureus ATCC 9144
# Procedure: as §1, §2, §3, §4, §5
# Pseudomonas aeruginosa = type: cell-based; conditions: ATCC10145; Table 4; Pseudomonas aeruginosa ATCC 10145
# Procedure: as §1, §2, §3, §4, §5
# Salmonella enteritidis = type: cell-based; conditions: Salmonella enterica, ATCC 13076 / ENTERITIDIS; Table 4; Salmonella enteritidis ATCC 13076
# Procedure: as §1, §2, §3, §4, §5
# MRSA = type: cell-based, Methicillin-resistant Staphylococcus aureus; conditions: Staphylococcus aureus, ATCC 33592 / MRSA; Table 4; MRSA ATCC 33592
# Procedure: as §1
# as §2, with “μg/mL). […]” for “μg/mL).”
# [1] = Table 3, 1 h in 5 mM phosphate buffer pH 7.4, then 18 h in LB broth
MIC90 (Escherichia coli; [1]) [µg/mL],MIC90 (Staphylococcus aureus; [1]) [µg/mL],MIC90 (Escherichia coli; Table 4) [µg/mL],MIC90 (Staphylococcus aureus; Table 4) [µg/mL],MIC90 (Pseudomonas aeruginosa) [µg/mL],MIC90 (Salmonella enteritidis) [µg/mL],MIC90 (MRSA) [µg/mL],SMILES
512,250,,,,,,"NCCc1ccc(O)c(O)c1 [DA, dopamine]"
2350,658,2350,658,2450,2660,1550,"NCCCNCCCCNCCCN [SPM, spermine]"
